Here are results for 3 compounds from article PMC6642186, “Molecular mechanism of setron-mediated inhibition of full-length 5-HT3A receptor” (Nature Communications, 2019).

For data set [1], the system named is human 5-HT3AR with mutations at the Arg65 position. On the set-up: method as in PMID 28137449. To be noted: cited from earlier work.
The next data set concerns α7nAChR. On the set-up: method as in PMID 11212100, PMID 15781147. To be noted: cited from earlier work.
The conditions of data set [2]: tertiary ammonium in the bicyclic ring; no reference given; cited from earlier work.
For another data set, the target named is T1, 5-HT3AR R65A mutant (Mus musculus, UniProt P23979, R92A).
T1 construct: Full-length 5-HT3AR messenger RNA (mRNA) was injected into oocytes; expressed in transfected cells; host or cells: Xenopus laevis oocytes (mRNA injection, pTLN vector)
T1 sequence (P23979 24-483 isoform P23979-2 R92A): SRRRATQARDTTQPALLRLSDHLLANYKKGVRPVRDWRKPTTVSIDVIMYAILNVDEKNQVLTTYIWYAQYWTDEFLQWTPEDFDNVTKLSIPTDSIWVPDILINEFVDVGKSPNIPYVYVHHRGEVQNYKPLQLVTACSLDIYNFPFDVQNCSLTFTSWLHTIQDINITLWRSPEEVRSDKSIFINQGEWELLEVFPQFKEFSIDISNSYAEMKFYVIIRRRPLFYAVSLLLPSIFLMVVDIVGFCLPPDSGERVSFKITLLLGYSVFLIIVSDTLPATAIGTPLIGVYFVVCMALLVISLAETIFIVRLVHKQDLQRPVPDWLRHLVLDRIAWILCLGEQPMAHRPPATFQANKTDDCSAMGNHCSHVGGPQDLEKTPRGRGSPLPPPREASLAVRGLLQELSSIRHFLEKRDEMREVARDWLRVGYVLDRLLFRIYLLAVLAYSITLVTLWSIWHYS
Nature of the data set: Serotonin dose response by TEVC recordings in oocytes. The format is cell-based. The protocol: (§1) Data are shown as mean ± s.d. (n is indicated within parentheses). Significance at p = 0.001 (***) and […] calculated by two-sample t test for WT and mutants. Source data are provided as a Source Data file
(§2) The gene encoding mouse 5-HT3AR (purchased from GenScript) was inserted into a Xenopus laevis expression vector (pTLN) using cloning primers shown in Supplementary Table 1. DNA linearization was carried out with the Mlu1 restriction enzyme overnight at 37 °C. mRNA synthesis was done using the mMessage mMachine Kit (Ambion) as per the manufacturer’s instructions and purification was done with RNAeasy Kit (Qiagen). mRNA for studied mutants was prepared in the same way. Three to ten nanograms of mRNA was injected into X. laevis oocytes (stages V–VI) and experiments were performed 2–5 days after injection. For control experiments to verify that no endogenous currents were present, oocytes were injected with the same volume of water. W.F. Boron kindly provided oocytes used in this study. Female X. laevis were purchased from Nasco. Animal experimental procedures were approved by Institutional Animal Care and Use Committee (IACUC) of Case Western Reserve University. […] Oocytes were clamped at a holding potential of −60 mV. Solutions were changed using a syringe pump perfusion system flowing at a rate of 6 ml/min.

In a further data set the target is T2, 5-HT3AR Y207F mutant (Mus musculus, UniProt P23979, Y234F).
T2 construct: Full-length 5-HT3AR messenger RNA (mRNA) was injected into oocytes; expressed in transfected cells; host or cells: Xenopus laevis oocytes (mRNA injection, pTLN vector)
T2 sequence (P23979 24-483 isoform P23979-2 Y234F): T1 sequence (P23979 24-483 isoform P23979-2 R92A) with A69R, Y211F
The data set is described as above. Format: cell-based. The protocol: as §1, §2

For a further data set, the target named is T3, 5-HT3AR W63Y mutant (Mus musculus, UniProt P23979, W90Y).
T3 construct: Full-length 5-HT3AR messenger RNA (mRNA) was injected into oocytes; expressed in transfected cells; host or cells: Xenopus laevis oocytes (mRNA injection, pTLN vector)
T3 sequence (P23979 24-483 isoform P23979-2 W90Y): T1 sequence (P23979 24-483 isoform P23979-2 R92A) with W67Y, A69R
The description is as above. Format: cell-based. The protocol:
as §1, §2

The next data set addresses T4, 5-HT3AR Y126F mutant (Mus musculus, UniProt P23979, Y153F).
T4 construct: Full-length 5-HT3AR messenger RNA (mRNA) was injected into oocytes; expressed in transfected cells; host or cells: Xenopus laevis oocytes (mRNA injection, pTLN vector)
T4 sequence (P23979 24-483 isoform P23979-2 Y153F): T1 sequence (P23979 24-483 isoform P23979-2 R92A) with A69R, Y130F
The description is as above. The format is cell-based. On the procedure:
as §1, §2

The target of the next data set is T5, 5-HT3AR W156Y mutant (Mus musculus, UniProt P23979, W183Y).
T5 construct: Full-length 5-HT3AR messenger RNA (mRNA) was injected into oocytes; expressed in transfected cells; host or cells: Xenopus laevis oocytes (mRNA injection, pTLN vector)
T5 sequence (P23979 24-483 isoform P23979-2 W183Y): T1 sequence (P23979 24-483 isoform P23979-2 R92A) with A69R, W160Y
Described as above. Format: cell-based. The protocol:
as §1, §2

A further data set addresses T6, wild-type (WT) 5-HT3AR (Mus musculus, UniProt P23979).
T6 construct: Full-length 5-HT3AR messenger RNA (mRNA) was injected into oocytes; expressed in transfected cells; host or cells: Xenopus laevis oocytes (mRNA injection, pTLN vector)
T6 sequence (P23979 24-483 isoform P23979-2 limits assumed): T1 sequence (P23979 24-483 isoform P23979-2 R92A) with A69R
Described as above. The format is cell-based. To be noted: for Normalized current: wt. On the procedure:
as §1, §2

Setting [3] is: serotonin dose response, TEVC at −60 mV, oocytes.

Changes are numbered by the printed parent chain.

Consider `CN1[C@@H]2CC[C@H]1C[C@@H](OC(=O)c1c[nH]c3ccccc13)C2` [tropisetron], for which the “effect of mutations at the Arg65 position on binding” value in [1] is listed as “only reduced”. Moreover, in the data set on α7nAChR, the “binding to α7nAChR” value is “bind to α7nAChR leading to channel activation”.

Usually pKa stands for the negative logarithm of the acid dissociation constant. Take `CN1C2CCCC1CC(NC(=O)c1nn(C)c3ccccc13)C2` (stereo not shown) [granisetron]: the pKa in data set [2] is on record as 9.6. In addition, in the data set on α7nAChR, the “binding to α7nAChR” value was “does not bind”.

In the case of `NCCc1c[nH]c2ccc(O)cc12` [serotonin], the Normalized current on 5-HT3AR R65A mutant (2.5 microM serotonin) is listed as 0.00482; at 5-HT3AR R65A mutant (5 microM serotonin) it was 0.04808; on 5-HT3AR R65A mutant (15 microM serotonin) it was 0.6252; on 5-HT3AR R65A mutant (20 microM serotonin), 0.7837; on 5-HT3AR R65A mutant (100 microM serotonin) it was 1; on 5-HT3AR Y207F mutant (5 microM serotonin), 0.02946. The Normalized current at 5-HT3AR Y207F mutant (10 microM serotonin) is recorded as 0.2522; on 5-HT3AR Y207F mutant (30 microM serotonin) it was 0.6081; on 5-HT3AR Y207F mutant (50 microM serotonin) it was 0.8641; at 5-HT3AR Y207F mutant (100 microM serotonin), 0.8795; at 5-HT3AR Y207F mutant (250 microM serotonin), 0.9933; on 5-HT3AR Y207F mutant (500 microM serotonin), 0.9971. Besides, the Normalized current came to 1 on 5-HT3AR Y207F mutant (1000 microM serotonin); 0.00868 at 5-HT3AR W63Y mutant (2 microM serotonin); 0.07991 at 5-HT3AR W63Y mutant (5 microM serotonin); 0.4765 on 5-HT3AR W63Y mutant (10 microM serotonin); 0.7556 on 5-HT3AR W63Y mutant (15 microM serotonin); 0.8311 on 5-HT3AR W63Y mutant (30 microM serotonin). Further, the Normalized current was 1 at 5-HT3AR W63Y mutant (100 microM serotonin); 0.04616 at 5-HT3AR Y126F mutant (10 microM serotonin); 0.2137 at 5-HT3AR Y126F mutant (30 microM serotonin); 0.6516 on 5-HT3AR Y126F mutant (50 microM serotonin); 0.7792 at 5-HT3AR Y126F mutant (100 microM serotonin); 0.904 at 5-HT3AR Y126F mutant (250 microM serotonin). Also, the Normalized current at 5-HT3AR Y126F mutant (500 microM serotonin) is 0.985; on 5-HT3AR Y126F mutant (1000 microM serotonin) it was 1; at 5-HT3AR W156Y mutant (20 microM serotonin), 0.00976; on 5-HT3AR W156Y mutant (50 microM serotonin), 0.04708; on 5-HT3AR W156Y mutant (100 microM serotonin) it was 0.2083; on 5-HT3AR W156Y mutant (200 microM serotonin), 0.2793. In addition, the Normalized current on 5-HT3AR W156Y mutant (500 microM serotonin) is reported as 0.6574; on 5-HT3AR W156Y mutant (1000 microM serotonin), 0.8828; at 5-HT3AR W156Y mutant (2000 microM serotonin), 1; on wild-type (WT) 5-HT3AR (1 microM serotonin), 0.091; at wild-type (WT) 5-HT3AR (2 microM serotonin) it was 0.3528; at wild-type (WT) 5-HT3AR (3 microM serotonin), 0.5303. Besides, the figures for the Normalized current on wild-type (WT) 5-HT3AR (5 microM serotonin), on wild-type (WT) 5-HT3AR (10 microM serotonin) and on wild-type (WT) 5-HT3AR (30 microM serotonin) were 0.8338, 0.9464 and 1, respectively. The “Hill coefficient (nH)” value is given as 4.4 ± 0.59 at 5-HT3AR R65A mutant (setting [3]); 1.9 ± 0.27 on 5-HT3AR Y207F mutant (setting [3]); 3.1 ± 0.72 on 5-HT3AR W63Y mutant (setting [3]); 2.6 ± 0.71 at 5-HT3AR Y126F mutant (setting [3]); 1.58 ± 0.24 at 5-HT3AR W156Y mutant (setting [3]); 2.3 ± 0.17 on wild-type (WT) 5-HT3AR (serotonin dose response, TEVC at −60 mV, oocytes, WT).
